# According to article PMC3116712 (ACS medicinal chemistry letters, 2011):
# Molecular target: WT A/M2 proton channel (Influenza A virus, UniProt P0DOF5)
# Format: cell-based
# Details: TEVC
# WT A/M2 proton channel, sequence (P0DOF5 whole entry, looked up): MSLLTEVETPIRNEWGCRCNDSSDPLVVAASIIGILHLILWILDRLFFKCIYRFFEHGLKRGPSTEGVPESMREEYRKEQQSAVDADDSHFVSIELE
row,Structure (SMILES),activity against WT A/M2 channel (in words)
1,CC12CC3(O)CC1(C)CC3(O)C2 [Compound 26],only moderately active
2,O=C1CC2(CCCCC2)CC(=O)N1 [Compound 16],only weakly active
3,OC1C2C3CC4C1C1C2CC3C41 (stereo not drawn) [Compound 19],only moderate inhibition
4,NN1C(=O)CC2(CCCCC2)CC1=O [Compound 17],only weakly active
5,Cl.NC12CC3CC(C1)CC(CO)(C3)O2 [Compound 25],not active
6,"O=S(=O)(O)C12CC3CC(CC(C3)C1)C2 [Compound 3, 1-adamantyl sulfonic acid]",inactive
